Test systems include HCT-15 colon; HOP-92 NSCLC; KM12 colon; M14 melanoma; MCF7 breast; NCI-H226 lung; NCI/ADR-RES ovarian; OVCAR-4 ovarian; SF-539 CNS; HL-60(TB) leukemia; RPMI-8226 leukemia.
What all share (assay): inhibition of tumour cell growth, NCI panel, 48 h

Where “and” joins values, the source holds several entries; their conditions need not be identical. Equal entries are not always repeated.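 Each compound was tested at five concentrations against cells in 96-well plates for 48 hours. GI50 = concentration required for 50% inhibition of growth. TGI denotes the concentration required for complete inhibition of growth.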

Take `CCn1c(=O)c2c3ccc(O)cc3[nH]c2c2ccc(O)cc21`: the TGI with HCT-15 colon, with HOP-92 NSCLC, in the experiment on KM12 colon, in the experiment on M14 melanoma, with MCF7 breast and in the experiment on NCI-H226 lung was over 100 µM in each case. Also, the TGI in the experiment on NCI/ADR-RES ovarian, in the experiment on OVCAR-4 ovarian and in the experiment with SF-539 CNS was over 100 µM each time.
In the case of `O=C(N/N=C/c1cc(Cl)cc(Cl)c1[O-])c1ccccc1O.O=C(N/N=C/c1cc(Cl)cc(Cl)c1[O-])c1ccccc1O.[Fe+2]`, the TGI was determined as 19.3 µM in the experiment with HCT-15 colon; 16.3 µM in the experiment on HL-60(TB) leukemia; 8.33 µM in the experiment on HOP-92 NSCLC; 41.8 µM with KM12 colon; 34.7 µM with M14 melanoma; 33.5 µM in the experiment with NCI-H226 lung. The TGI stood at 33.7 µM with OVCAR-4 ovarian and 28 µM in the experiment with SF-539 CNS. In addition, the GI50 with HOP-92 NSCLC is 3.4 µM; with KM12 colon, 15.5 µM; in the experiment with SF-539 CNS, 10.4 µM.
`O=c1[nH]c(Br)nc2n[nH]nc12`: the TGI in the experiment with HCT-15 colon, with HL-60(TB) leukemia, in the experiment with HOP-92 NSCLC, in the experiment on KM12 colon, in the experiment with M14 melanoma and in the experiment on MCF7 breast was over 100 µM each time. Also, the TGI in the experiment on NCI-H226 lung is over 100 µM; in the experiment with NCI/ADR-RES ovarian it was over 100 µM; with OVCAR-4 ovarian it was over 100 µM; with RPMI-8226 leukemia it was over 100 µM; in the experiment on SF-539 CNS, 94.9 µM.
As to `CC(=O)OC1(C)CC(C)C(=O)C(C(O)CC2CC(=O)NC(=O)C2)C1` (centres undefined), the TGI was 0.176 µM in the experiment with HCT-15 colon; 0.0121 µM in the experiment on HOP-92 NSCLC; 0.164 µM and 0.327 µM in the experiment on KM12 colon; 0.172 µM and 0.0421 µM with M14 melanoma; 0.0813 µM in the experiment on MCF7 breast; 0.275 µM in the experiment with NCI-H226 lung. Further, the TGI with NCI/ADR-RES ovarian was 0.744 µM and 0.341 µM; with OVCAR-4 ovarian, 0.178 µM and 0.0277 µM; in the experiment on RPMI-8226 leukemia, 0.0162 µM. Moreover, in the experiment with NCI-H226 lung, the GI50 is 0.0108 µM.
On to `O=[N+]([O-])c1cc(C(F)(F)F)cc2c1SC1=Nc3ccccc3CN12`, for which the TGI in the experiment with HCT-15 colon, with HL-60(TB) leukemia, with HOP-92 NSCLC, in the experiment on KM12 colon, in the experiment with MCF7 breast and in the experiment with NCI-H226 lung was over 100 µM each time. Besides, the TGI in the experiment with NCI/ADR-RES ovarian, in the experiment with OVCAR-4 ovarian, with RPMI-8226 leukemia and with SF-539 CNS was over 100 µM throughout.
In the case of `C[N+]1(C)C/C(=C\C=C\c2ccccc2)C(=O)/C(=C/C=C/c2ccccc2)C1`, the TGI in the experiment with HCT-15 colon is over 100 µM; in the experiment with HL-60(TB) leukemia it was 4.13 µM; in the experiment on HOP-92 NSCLC, 70.3 µM; in the experiment on KM12 colon, 10.3 µM; with M14 melanoma, 39.1 µM; in the experiment with MCF7 breast, 38.4 µM. Further, the TGI with NCI-H226 lung is over 72.1 µM; in the experiment with NCI/ADR-RES ovarian, over 100 µM; with OVCAR-4 ovarian, over 84.2 µM; in the experiment on RPMI-8226 leukemia it was 10.9 µM; in the experiment with SF-539 CNS, 33.9 µM.
Turning to `CC(=O)C(C(=O)C(=O)Nc1cc(Cl)c(Cl)cc1Cl)c1csc(N)n1` (centres undefined), the TGI in the experiment on HCT-15 colon, with HL-60(TB) leukemia, in the experiment with HOP-92 NSCLC, in the experiment with KM12 colon, with M14 melanoma and in the experiment on NCI-H226 lung was over 100 µM in each case. Also, the TGI in the experiment on OVCAR-4 ovarian, in the experiment with RPMI-8226 leukemia and in the experiment on SF-539 CNS was over 100 µM each time.
Regarding `NCCNc1ccc(NCCN)c2c1C(=O)c1c(O)ccc(O)c1C2=O`, the GI50 is 0.0303 µM in the experiment on HCT-15 colon; 0.229 µM in the experiment on HOP-92 NSCLC; 0.105 µM in the experiment with KM12 colon; 0.0324 µM in the experiment with M14 melanoma; 0.0102 µM in the experiment with NCI-H226 lung; 0.237 µM with NCI/ADR-RES ovarian. Further, the GI50 with OVCAR-4 ovarian is 0.0625 µM; in the experiment with SF-539 CNS, under 0.0112 µM. Besides, the TGI was 0.391 µM and 1.26 µM in the experiment on HCT-15 colon; 0.0789 µM with HOP-92 NSCLC; 1.24 µM and 0.731 µM with KM12 colon; 1.27 µM and 1.32 µM with M14 melanoma; 4.51 µM and 1.27 µM with MCF7 breast; 0.0439 µM and 0.0393 µM in the experiment on NCI-H226 lung. Besides, the TGI was 1.39 µM and 2.84 µM in the experiment with NCI/ADR-RES ovarian; 1.09 µM and 0.715 µM in the experiment on OVCAR-4 ovarian; 0.692 µM in the experiment with RPMI-8226 leukemia; 0.932 µM and 0.261 µM in the experiment with SF-539 CNS.
Consider `NCCCC(N)(C(=O)O)C(F)F` (centres undefined), for which the TGI in the experiment on HCT-15 colon, in the experiment with HL-60(TB) leukemia, in the experiment on HOP-92 NSCLC, with KM12 colon, with MCF7 breast and with NCI-H226 lung was over 5000 µM in each case. Besides, the TGI in the experiment on NCI/ADR-RES ovarian, in the experiment with OVCAR-4 ovarian, in the experiment on RPMI-8226 leukemia and in the experiment on SF-539 CNS was over 5000 µM in each case.
Take `O=C(N/N=C/c1cc(Cl)cc(Cl)c1[O-])c1ccccc1O.O=C(N/N=C/c1cc(Cl)cc(Cl)c1[O-])c1ccccc1O.[Cu+2]`: the TGI with HCT-15 colon is 1.61 µM; with HL-60(TB) leukemia, 0.512 µM; in the experiment on HOP-92 NSCLC it was 0.671 µM; with KM12 colon it was 1.59 µM; in the experiment with M14 melanoma it was 0.964 µM; in the experiment on OVCAR-4 ovarian, 0.637 µM. This compound gave a TGI in the experiment on SF-539 CNS of 1.02 µM. Further, the GI50 is 0.224 µM in the experiment on HOP-92 NSCLC, 0.442 µM in the experiment on KM12 colon and 0.306 µM with SF-539 CNS.
Turning to `NC1C2C=CC(C2)C1C(=O)O` (centres undefined), the TGI in the experiment with HCT-15 colon, in the experiment with HL-60(TB) leukemia, with HOP-92 NSCLC, in the experiment with KM12 colon, in the experiment with M14 melanoma and in the experiment on MCF7 breast was over 100 µM in each case. The TGI in the experiment with NCI-H226 lung, in the experiment on NCI/ADR-RES ovarian, with OVCAR-4 ovarian, in the experiment with RPMI-8226 leukemia and in the experiment with SF-539 CNS was over 100 µM in each case.
Take `COc1cc2c(cc1OC)-c1cc3cc(OC)c(OC)cc3c(C)[n+]1CC2` (tested in a mixture with another compound): the TGI with HCT-15 colon, in the experiment on HL-60(TB) leukemia, in the experiment on HOP-92 NSCLC, in the experiment on KM12 colon, with M14 melanoma and with MCF7 breast was over 100 µM each time. Also, the TGI in the experiment on NCI-H226 lung, in the experiment with NCI/ADR-RES ovarian, in the experiment on OVCAR-4 ovarian, with RPMI-8226 leukemia and in the experiment on SF-539 CNS was over 100 µM in each case.
Take `CCN(CC)CCCNC(=O)c1ccccc1Nc1c(Cl)cccc1Cl`: the TGI is 25.2 µM in the experiment on HCT-15 colon; 12.5 µM in the experiment with HL-60(TB) leukemia; 7.86 µM in the experiment with M14 melanoma; 28.6 µM in the experiment on NCI-H226 lung; 23 µM in the experiment on OVCAR-4 ovarian; 20.5 µM with RPMI-8226 leukemia. Moreover, in the experiment with SF-539 CNS, the TGI turned out to be 23.7 µM.
`Oc1ccccc1CNCc1ccccc1O`: the TGI in the experiment on HCT-15 colon, with HL-60(TB) leukemia, in the experiment on HOP-92 NSCLC, with KM12 colon, with M14 melanoma and in the experiment with MCF7 breast was over 100 µM each time. Moreover, the TGI in the experiment with NCI-H226 lung, with NCI/ADR-RES ovarian, in the experiment on OVCAR-4 ovarian, in the experiment on RPMI-8226 leukemia and in the experiment with SF-539 CNS was over 100 µM in each case.
For `Nc1n[nH]c(N)n1`, the TGI in the experiment on HCT-15 colon is over 10000 µM; in the experiment on HL-60(TB) leukemia, 7060 µM; with HOP-92 NSCLC, 9580 µM; with KM12 colon it was over 10000 µM; in the experiment with M14 melanoma it was over 10000 µM; with MCF7 breast it was over 10000 µM. The TGI in the experiment on NCI-H226 lung is over 10000 µM; in the experiment on NCI/ADR-RES ovarian, over 10000 µM; in the experiment with OVCAR-4 ovarian it was over 10000 µM; with RPMI-8226 leukemia, over 10000 µM; in the experiment on SF-539 CNS, 8860 µM.
Consider `O=C(N/N=C/c1cc(Cl)cc(Cl)c1[OH2+])c1ccncc1.O=S(=O)([O-])[O-].[Fe+2]`, for which the TGI was found to be 35.2 µM with HCT-15 colon; 2.09 µM in the experiment on HL-60(TB) leukemia; 9.66 µM with HOP-92 NSCLC; 29.4 µM with KM12 colon; 41.1 µM in the experiment on M14 melanoma; 41.9 µM in the experiment on NCI-H226 lung. Besides, the TGI in the experiment on RPMI-8226 leukemia was 5.98 µM; in the experiment on SF-539 CNS, 36.4 µM. In addition, the GI50 in the experiment on HOP-92 NSCLC was 3.71 µM.
On to `COc1cccc2c1C(=O)c1c(O)c3c(c(O)c1C2=O)CC(O)(C(C)=O)CC3OC1OC(COC(C)=O)C(OC(C)=O)C(OC(C)=O)C1OC(C)=O` (centres undefined), for which the TGI with HCT-15 colon is over 100 µM; in the experiment on HL-60(TB) leukemia, over 100 µM; in the experiment with HOP-92 NSCLC, 32.2 µM; in the experiment with KM12 colon, over 100 µM; in the experiment with M14 melanoma, over 100 µM; in the experiment on MCF7 breast, over 100 µM. Also, the TGI in the experiment with NCI/ADR-RES ovarian was over 100 µM; in the experiment on OVCAR-4 ovarian, 53.3 µM; with SF-539 CNS, 39.7 µM.
Turning to `CCCCCC1CC(C(C)=O)CN1c1ccc(F)cc1` (centres undefined), the TGI with HCT-15 colon is over 100 µM; in the experiment on HL-60(TB) leukemia, over 10 µM; in the experiment on HOP-92 NSCLC, 83.6 µM; with KM12 colon, over 100 µM; in the experiment with M14 melanoma it was over 100 µM; in the experiment with SF-539 CNS, over 100 µM.

(Values after PubChem BioAssay (NCI).)
